Test results as given in patent US5223526A, “Pyrazole carboxanilide fungicides and use” (Monsanto Company, priority 1992, dated 1993).

Key:
succinate dehydrogenase = target: T1, succinate dehydrogenase (Botrytis cinerea, UniProt A0A384J5E4+A0A384J8V8+A0A384JHJ5); test: Enzyme inhibition: succinate dehydrogenase activity in Botrytis cinerea mitochondria (DCPIP reduction); assay type: biochemical; details: concentration required to inhibit the rate of DCPIP reduction by 50%; Botrytis cinerea isolate Nick mitochondria; read-out: I50 (μM conc.)
T1 construct: succinate-DCPIP reductase assay with KCN
T1 sequence (A0A384J5E4 1-300): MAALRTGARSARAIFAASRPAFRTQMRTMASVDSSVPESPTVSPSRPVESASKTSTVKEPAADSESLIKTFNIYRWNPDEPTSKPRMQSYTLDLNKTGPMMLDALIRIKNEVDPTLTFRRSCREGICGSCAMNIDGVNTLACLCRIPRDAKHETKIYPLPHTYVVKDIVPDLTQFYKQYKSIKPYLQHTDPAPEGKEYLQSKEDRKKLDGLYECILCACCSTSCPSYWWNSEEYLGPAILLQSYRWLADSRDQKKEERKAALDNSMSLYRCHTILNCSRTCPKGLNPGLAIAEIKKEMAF
T1 sequence (A0A384J8V8 1-189): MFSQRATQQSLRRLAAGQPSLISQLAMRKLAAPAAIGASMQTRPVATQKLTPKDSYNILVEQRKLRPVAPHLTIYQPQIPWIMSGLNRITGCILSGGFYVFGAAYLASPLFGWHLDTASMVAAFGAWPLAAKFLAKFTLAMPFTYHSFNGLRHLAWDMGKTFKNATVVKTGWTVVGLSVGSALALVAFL
T1 sequence (A0A384JHJ5 1-192): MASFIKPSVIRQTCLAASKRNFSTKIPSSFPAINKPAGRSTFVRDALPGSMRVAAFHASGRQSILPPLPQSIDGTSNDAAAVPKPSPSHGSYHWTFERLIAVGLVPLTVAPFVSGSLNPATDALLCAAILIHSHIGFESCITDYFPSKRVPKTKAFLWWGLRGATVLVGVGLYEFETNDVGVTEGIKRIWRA
T1 sequence (A0A384K456 1-647 partner): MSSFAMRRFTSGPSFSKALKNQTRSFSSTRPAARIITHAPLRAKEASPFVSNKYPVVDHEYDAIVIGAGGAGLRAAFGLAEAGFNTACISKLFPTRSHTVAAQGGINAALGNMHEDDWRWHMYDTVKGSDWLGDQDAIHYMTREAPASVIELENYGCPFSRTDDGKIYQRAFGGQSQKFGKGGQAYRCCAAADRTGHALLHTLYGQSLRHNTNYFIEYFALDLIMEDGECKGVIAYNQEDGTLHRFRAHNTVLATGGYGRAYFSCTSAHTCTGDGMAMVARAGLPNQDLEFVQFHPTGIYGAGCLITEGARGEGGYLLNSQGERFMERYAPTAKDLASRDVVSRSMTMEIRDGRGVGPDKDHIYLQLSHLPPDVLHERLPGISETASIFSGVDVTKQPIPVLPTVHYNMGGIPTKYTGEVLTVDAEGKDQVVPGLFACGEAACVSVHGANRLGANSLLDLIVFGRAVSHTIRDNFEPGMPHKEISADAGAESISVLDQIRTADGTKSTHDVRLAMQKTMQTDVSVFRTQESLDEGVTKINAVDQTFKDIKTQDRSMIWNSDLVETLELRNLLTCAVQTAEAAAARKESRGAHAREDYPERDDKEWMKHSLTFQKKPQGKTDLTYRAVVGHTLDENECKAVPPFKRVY
Procedure: Mitochondria were isolated by a method adapted from G.A. White [Biochem. Biophys. Res. Commun. 44: 1212, 1971]. Twenty to thirty grams of Botrytis cinerea isolate Nick were resuspended in 250 mL 0.25M sucrose, 5mM Na4 EDTA, pH 7.0 (+) 0.15% (w/v) bovine serum albumin (BSA) and placed in a Bead Beater chamber (Biospec Products, Bartlesville, Ok.). Zirconium oxide beads (0.5mm) were added to finish filling the chamber. Four 30 second beats separated by 2 minute temperature equilibration periods in the cold were used to break the mycelia. A crude mitochondrial preparation was harvested from the homogenate by differential centrifugation at 4° C. and resuspended in BSA-free sucrose/EDTA media and used for SDH assays.
The succinate dehydrogenase activity was measured at 600 nm in 50 mM potassium phosphate, pH 7.2, 1 mM KCN, 45 μM 2,6-dichlorophenolindophenol (DCPIP) and 17 mM disodium succinate (final volume, 1 mL) with a Perkin-Elmer Lambda 7 ultraviolet-visible spectrophotometer. The test compounds were added as acetone solutions (final concentration of acetone, 1% (v/v)). The mitochondrial preparatons were used to initiate the reaction. All rates were corrected for endogenous activities minus succinate. Semilog plots of percentage inhibition versus test compound concentration were used to determine inhibition expressed as I50 (μM) which is the concentration required to inhibit the rate of DCPIP reduction by 50%. The commercial fungicide carboxin was used as standard throughout.

Botrytis cinerea [1] = test: Eggplant grey mold; assay type: in vivo; design: scale not given here; details: inoculated 24 h later, rated after 3-4 days; for Disease Control Rating at 20 ppm: eggplant sprayed with 20 ppm; for Disease Control Rating at 100 ppm: eggplant sprayed with 100 ppm; for Disease Control Rating at 500 ppm: eggplant sprayed with 500 ppm
Procedure: Eggplant seed are planted in 2.25" square pots, six per pot, and maintained in growth chambers set at 23° C., 80% humidity, and 12 h photoperiod. When the plants are at the cotyledon stage (14-18 days afterplanting), the plants are sprayed with 1.5 mL/pot of 500, 100 or 20 ppm 2:3 acetone:water (with 0.5% Tween® 20) formulations of the test compounds.
Twenty-four hours later the plants are inoculated with Botrytis cinerea, approximately 0.5 mL/pot of a 4×10^6 spore/mL suspension. The plantes are incubated at 23° C. and 100% humidity for 3-4 days, at which time disease control ratings are made based on presence and severity of Botrytis lesions.

Botrytis cinerea [2] = test: Vine grey mold (grape berries); assay type: in vivo; details: average of six berries, 7-10 days; for pest or weed control at 50 ppm: grape berries treated with 50 ppm, read-out: % DISEASE CONTROL 50 ppm; for pest or weed control at 200 ppm: grape berries treated with 200 ppm, read-out: % DISEASE CONTROL 200 ppm
Procedure: Grape berries, which have been washed and surfaced sterilized in 70% ethanol for one minute, are, except for the negative controls, treated with 0.2 mL of a 2:3 acetone/water formulation (containing 0.05% Tween® 20) of 200 or 50 ppm of the test compounds and placed one per well in 12-well plates. Six berries per treatment level are used. Twenty-four hours later each berry is inoculated with Botrytis cinerea conidia, 0.2 mL of 10^6 spores/mL suspension. The plates are incubated at 20° C. with a 12 hours photoperiod for 7-10 days and the percent surface area infected with the disease is determined for each replicate using the values of 0, 1, 2, 5, 7, 10, 15, 20, 25, 30, 35, 40, 45, 50, 55, 60, 65, 70, 75, 80, 85, 90, 95, and 100%. Treatment means are calculated and percent disease control is determined by the formula [(control mean - treatment mean)/control means]×100.
Some of the compounds have been tested more than once and the results shown are the average of the number of tests reported.

Rhizoctonia solani = test: Rice sheath blight; assay type: in vivo; design: scale not given here; details: inoculated two days later, rated after 7 days, average of five plants; for Disease Control Rating at 0.5 mg/mL: foliage and soil sprayed with 0.5 mg/mL; for Disease Control Rating at 0.02 mg/mL: foliage and soil sprayed with 0.02 mg/mL; for Disease Control Rating at 0.1 mg/mL: foliage and soil sprayed with 0.1 mg/mL
Procedure: Rice plants, 11 to 15 days old, are grown in 7.65 cm^2 pots. Each plant in the treatment groups is treated by spraying both the foliage and the soil surface, each with 2 mL of a water/acetone/Tween®20 formulation containing 0.5, 0.1, or 0.02 mg/mL of Compound A. The pots are placed in flood trays which are filled with water to just below the soil line. Two days later, approximately two grams of Rhizoctonia solani inoculum, cultured on rice grain for four to eight weeks, is applied to the base of the rice plants in each pot. After 7 days in a 25° C. high humidity growth chamber, each plant is evaluated for the level of disease contro as compared to untreated controls by the following scale and the average of five plants per treatment level is calculated.

Compound	IC50 (succinate dehydrogenase)	Disease Control Rating at 20 ppm (Botrytis cinerea [1])	Disease Control Rating at 100 ppm (Botrytis cinerea [1])	Disease Control Rating at 500 ppm (Botrytis cinerea [1])	pest or weed control at 50 ppm (Botrytis cinerea [2])	pest or weed control at 200 ppm (Botrytis cinerea [2])	Disease Control Rating at 0.5 mg/mL (Rhizoctonia solani)	Disease Control Rating at 0.02 mg/mL (Rhizoctonia solani)	Disease Control Rating at 0.1 mg/mL (Rhizoctonia solani)
Cn1cc(C(=O)Nc2ccccc2C2=CCCCCCC2)c(C(F)(F)F)n1 [Example 120, 1H-pyrazole-4-carboxamide, N-[2-(1-cycloocten-1-yl)phenyl]-1-methyl-3-(trifluoromethyl)-]	0.0041 µM	0	0	2	60%	82%	3		
Cn1cc(C(=O)Nc2ccccc2C2=CCCC2(C)C)c(C(F)F)n1 [Example 122, 1H-pyrazole-4-carboxamide, 3-(difluoromethyl)-N-[2-(5,5-dimethyl-1-cyclopenten-1-yl)phenyl]-1-methyl-]	0.034 µM	1	2	2	67%	79%	0		
Cn1cc(C(=O)Nc2ccccc2C2CCC(C(C)(C)C)CC2)c(C(F)(F)F)n1 (stereo not shown) [Example 135, 1H-pyrazole-4-carboxamide, N-[2-[4-(1,1-dimethylethyl)cyclohexyl]-phenyl]-1-methyl-3-(trifluoromethyl)-]	0.01 µM	1	1	2	52%	66%	3		
O=C(Nc1ccccc1C1CCCCC1)c1cn(C(F)F)nc1C(F)F [Example 61, 1H-pyrazole-4-carboxamide, N-(2-cyclohexylphenyl)-1,3-bis(difluoromethyl)-]	0.19 µM			1	0%	0%	0		
Cn1cc(C(=O)Nc2ccccc2OCCC2CCCC2)c(C(F)F)n1 [Example 54, 1H-pyrazole-4-carboxamide, N-[2-(2-cyclopentylethoxy)phenyl]-3-(difluoromethyl)-1-methyl-]	0.011 µM			0	2%	2%	2		
Cn1nc(C(F)(F)F)c(C(=O)Nc2ccccc2C2CCCCC2)c1F [Example 84, 1H-pyrazole-4-carboxamide, N-(2-cyclohexylphenyl)-5-fluoro-1-methyl-3-(trifluoromethyl)-]	0.013 µM	0	1	2	93%	96%	0		
CCC1CCCC(C)=C1c1ccccc1NC(=O)c1cn(C)nc1C(F)(F)F (stereo not shown) [Example 138, 1H-pyrazole-4-carboxamide, N-[2-(6-ethyl-2-methyl-1-cyclohexen-1-yl)phenyl]-1-methyl-3-(trifluoromethyl)-]	0.13 µM	0	0	0	0%	4%	2		
Cn1cc(C(=O)Nc2ccccc2SC2CCCCC2)c(C(F)(F)F)n1 [Example 45, 1H-pyrazole-4-carboxamide, N-[2-(cyclohexylthio)phenyl]-1-methyl-3-(trifluoromethyl)-]	0.092 µM			0	7%	12%	0		
Cc1ccc(NC(=O)c2cn(C)nc2C(F)F)c(C2CCCCC2)c1 [Example 28, 1H-pyrazole-4-carboxamide, N-(2-cyclohexyl-4-methylphenyl)-3-(difluoromethyl)-1-methyl-]	0.01 µM	0	1	2	37%	77%	0		
CC1=C(c2ccccc2NC(=O)c2cn(C)nc2C(F)F)C(C)CCC1 (stereo not shown) [Example 124, 1H-pyrazole-4-carboxamide, 3-(difluoromethyl)-N-[2-(2,6-dimethyl-1-cyclohexen-1-yl)phenyl]-1-methyl-]	0.013 µM	0	1	2	48%	96%	2		
Cn1cc(C(=O)Nc2ccccc2OCC2CCCC2)c(C(F)(F)F)n1 [Example 47, 1H-pyrazole-4-carboxamide, N-[2-(cyclopentylmethoxy)phenyl]-1-methyl-3-(trifluoromethyl)-]	0.16 µM			0	3%	0%	3	1	3
Cn1cc(C(=O)Nc2ccccc2C2CCCCCCC2)c(C(F)F)n1 [Example 24, 1H-pyrazole-4-carboxamide, N-(2-cyclooctylphenyl)-3-(difluoromethyl)-1-methyl-]	0.0012 µM	1	2	2	87%	100%	3	3	3
Cc1nn(C)cc1C(=O)Nc1ccccc1C1CCCCCC1 [Example 13, 1H-pyrazole-4-carboxamide, N-(2-cycloheptylphenyl)-1,3-dimethyl-]	0.011 µM	1	1	3	63%	66%	3	2	3
Cn1cc(C(=O)Nc2ccccc2[C@@H]2C[C@H]3CC[C@@H]2C3)c(I)n1 (relative stereo) [Example 58, 1H-pyrazole-4-carboxamide, N-(2-bicyclo[2.2.1]hept-2-ylphenyl)-3-iodo-1-methyl-, exo-]	0.0086 µM	0	0	2	51%	78%	2		
Cn1cc(C(=O)Nc2ccccc2C2CCCC2)c(I)n1 [Example 69, 1H-pyrazole-4-carboxamide, N-(2-cyclopentylphenyl)-3-iodo-1-methy1-]	0.033 µM			0	30%	70%	3	0	2
